Among the test systems are MOLT-4; HL-60; MDA-N; COLO 205; SK-OV-3; DU-145; OVCAR-3; SF-295; NCI-H226; OVCAR-4; HOP-62; Malme-3M; U-251; CAKI-1; HCC 2998; RXF 393; SN12C; NCI/ADR-RES; DMS-114; SNB-75.
Holding throughout (test): inhibition of tumour cell growth, NCI panel, 48 h

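Tested at 5 concentrations; 48 h exposure; 96-well plates; endpoints linearly interpolated, else capped at highest concentration. GI50 marks 50% less growth.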 Active and inactive are the calls of the source. No stated cut-off is given here; in the data, active = GI50 up to about 1.1 µM and inactive = higher. Bounds are passed on as bounds.

Regarding `NC(=O)c1cc(N2CC2)c([N+](=O)[O-])cc1[N+](=O)[O-]` [TRETAZICAR], the GI50 in the test on MOLT-4 was > 63.2 µM (inactive); in the test on HL-60 it was > 100 µM (inactive); in the test on MDA-N, > 200 µM (inactive); with COLO 205 it was > 100 µM (inactive); in the test on SK-OV-3, > 100 µM (inactive); with DU-145, > 200 µM (inactive). Also, the GI50 in the test with OVCAR-3 is > 100 µM (inactive); in the test with SF-295, > 100 µM (inactive); in the test with NCI-H226 it was > 100 µM (inactive); in the test with OVCAR-4 it was > 100 µM (inactive); in the test on HOP-62, > 100 µM (inactive); in the test with Malme-3M, > 129 µM (inactive). Further, the GI50 in the test with U-251 was > 100 µM (inactive); with CAKI-1, > 100 µM (inactive); in the test on HCC 2998 it was > 100 µM (inactive); with RXF 393 it was > 100 µM (inactive); in the test with SN12C, > 100 µM (inactive); with NCI/ADR-RES it was > 200 µM (inactive). In the test on DMS-114, the GI50 is > 100 µM (inactive).

For the compound `O=CN/C=C/c1cccc(O)c1`, the GI50 in the test with MOLT-4 is 59.8 µM (inactive); with HL-60, 38.5 µM (inactive); in the test with MDA-N, 46 µM (inactive); in the test with COLO 205, > 77.3 µM (inactive); in the test on SK-OV-3, > 72.1 µM (inactive); with DU-145, 57.5 µM (inactive). Also, the GI50 with OVCAR-3 is > 100 µM (inactive); in the test with SF-295, 48.8 µM (inactive); in the test with NCI-H226 it was 56.5 µM (inactive); in the test with OVCAR-4 it was 61.4 µM (inactive); in the test with HOP-62 it was 39.3 µM (inactive); with Malme-3M it was > 82.8 µM (inactive). Moreover, the GI50 in the test on U-251 was 56.9 µM (inactive); in the test with CAKI-1, > 61.5 µM (inactive); with HCC 2998 it was > 74.6 µM (inactive); with SNB-75 it was > 69.3 µM (inactive); with RXF 393, 60 µM (inactive); with SN12C it was 56.2 µM (inactive). Moreover, the figures for the GI50 in the test on NCI/ADR-RES and in the test on DMS-114 were 52.2 µM (inactive) and > 100 µM (inactive), respectively.

In the case of `NCCCNc1ccc2c3c(nn2CCNCCO)-c2c(O)ccc(O)c2C(=O)c13`, the GI50 was 0.21 µM (active) in the test on MOLT-4; 2.75 µM (inactive) in the test on MDA-N; 1.44 µM (inactive) with COLO 205; 1.28 µM (inactive) in the test on SK-OV-3; 1.29 µM (inactive) in the test on DU-145; 5.13 µM (inactive) with OVCAR-3. Further, the GI50 with SF-295 was 0.889 µM (active); with NCI-H226, 0.406 µM (active); with OVCAR-4, 3.93 µM (inactive); with HOP-62 it was 0.362 µM (active); with Malme-3M, 1.51 µM (inactive); with SNB-75, 0.889 µM (active). In addition, the results for the GI50 in the test with NCI/ADR-RES and in the test with DMS-114 were 29.7 µM (inactive) and 0.561 µM (active), respectively.

Take `COc1ccc(/C=C2/C(=O)N(C(=O)c3ccccc3O)N=C2C)cc1OC`: the GI50 was 21.2 µM (inactive) in the test with MOLT-4; 0.687 µM (active) in the test on HL-60; 0.489 µM (active) in the test on MDA-N; 26.7 µM (inactive) in the test on COLO 205; 1.21 µM (inactive) with SK-OV-3; 0.643 µM (active) with DU-145. The GI50 in the test on OVCAR-3 was 0.374 µM (active); in the test on SF-295, 0.365 µM (active); in the test with NCI-H226 it was 0.637 µM (active); in the test with OVCAR-4 it was 2.44 µM (inactive); in the test on HOP-62, 1.99 µM (inactive); with Malme-3M, 0.849 µM (active). For the same compound, the GI50 in the test on U-251 is 0.202 µM (active); in the test with CAKI-1 it was 2.46 µM (inactive); in the test on HCC 2998, > 24.3 µM (inactive); with RXF 393 it was 0.0214 µM (active); in the test on SN12C it was 2.42 µM (inactive); with NCI/ADR-RES, 0.614 µM (active). In addition, the GI50 in the test on DMS-114 was 0.301 µM (active).

In the case of `C=C(CN(C)C)C(=O)c1cc(C)ccc1C`, the GI50 in the test with MOLT-4 is 0.371 µM (active); with HL-60, 0.232 µM (active); in the test with MDA-N, 6.84 µM (inactive); with COLO 205, 1.58 µM (inactive); in the test on SK-OV-3, 18.4 µM (inactive); in the test with DU-145, 14.4 µM (inactive). Moreover, the GI50 with OVCAR-3 was 5.33 µM (inactive); in the test on SF-295, 16.7 µM (inactive); with NCI-H226, 13.2 µM (inactive); in the test with OVCAR-4 it was 9.75 µM (inactive); in the test on HOP-62, 18.7 µM (inactive); with Malme-3M, 2.5 µM (inactive). In addition, the GI50 is 15.7 µM (inactive) with U-251; 4.39 µM (inactive) with CAKI-1; 15.8 µM (inactive) in the test on HCC 2998; 17.2 µM (inactive) in the test on SNB-75; 2.61 µM (inactive) in the test with RXF 393; 15.6 µM (inactive) in the test on SN12C. For the same compound, the GI50 was 18.3 µM (inactive) with NCI/ADR-RES and 5.02 µM (inactive) with DMS-114.

(Values after ChEMBL document CHEMBL1201862, “PubChem BioAssay data set” (2004).)
